Results as given in patent publication US11298363B2, “Triazolobenzazepines as vasopressin V1a receptor antagonists” (RICHTER GEDEON NYRT., priority 2017, dated 2022).

Tests used:
[1] = target: T1, human vasopressin V1a receptor (Homo sapiens, UniProt P37288); test: Human vasopressin V1a receptor binding assay; details: 1321N1 cell membranes, [3H]vasopressin; read-out: Ki (nM) on hV1a cell line
Procedure, shortened: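 Radioligand competition on membranes from cells expressing human V1a receptor; incubation 60 minutes at 27° C., non-specific binding with 1.2×10^−6 M unlabeled (Arg^8)-vasopressin, filtration separation. Ki by Cheng-Prusoff using Scatchard-derived KD, from at least two independent experiments.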

[2] = target: T1, human vasopressin V1a receptor; test: Functional assay on human vasopressin V1a receptor expressing cell line (intracellular Ca2+ fluorescence); assay type: cell-based; details: 1321N1 cells, (Arg8)-vasopressin at EC80; read-out: IC50 (nM) on hV1a cell line

T1 sequence (P37288 whole entry): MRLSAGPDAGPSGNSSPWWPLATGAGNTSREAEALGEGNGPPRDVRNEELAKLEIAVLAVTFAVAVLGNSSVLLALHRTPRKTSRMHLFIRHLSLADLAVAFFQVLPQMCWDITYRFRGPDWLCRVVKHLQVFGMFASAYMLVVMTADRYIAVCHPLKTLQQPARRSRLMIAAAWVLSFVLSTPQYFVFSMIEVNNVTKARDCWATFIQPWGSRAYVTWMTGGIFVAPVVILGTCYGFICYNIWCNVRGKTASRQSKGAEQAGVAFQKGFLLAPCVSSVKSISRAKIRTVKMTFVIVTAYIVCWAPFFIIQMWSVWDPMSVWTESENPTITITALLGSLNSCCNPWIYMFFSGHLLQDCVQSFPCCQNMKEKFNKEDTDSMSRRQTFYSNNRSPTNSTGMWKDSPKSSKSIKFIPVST

SMILES	Ki [1]	IC50 [2]
N#CCC(=O)OC1Cc2cc(Cl)ccc2-n2c(nnc2[C@H]2CC[C@H](Oc3ccccn3)CC2)C1 (stereo partly drawn) [Example 215, 8-chloro-1-[trans-4-pyridin-2-yloxy)cyclohexyl]-5,6-dihydro-4H-[1,2,4]triazolo[4,3-a][1]benzazepin-5-yl cyanoacetate]	0.2 nM	3.7 nM
CN(C)CC(=O)OC1Cc2cc(Cl)ccc2-n2c(nnc2[C@H]2CC[C@H](Oc3ccccn3)CC2)C1 (stereo partly drawn) [Example 216, 8-chloro-1-[trans-4-(pyridin-2-yloxy)cyclohexyl]-5,6-dihydro-4H-[1,2,4]triazolo[4,3-a][1]benzazepin-5-yl N,N-dimethylglycinate]	0.7 nM	1.5 nM
O=C(N[C@@H]1Cc2cc(Cl)ccc2-n2c(nnc2[C@H]2CC[C@H](Oc3ccccn3)CC2)C1)C(F)(F)F [Example 217, N-{(5R)-8-chloro-1-[trans-4-(pyridin-2-yloxy)cyclohexyl]-5,6-dihydro-4H-[1,2,4]triazolo[4,3-a][1]benzazepin-5-yl}-2,2,2-trifluoroacetamide]	0.3 nM	1.4 nM
COC1Cc2cc(Cl)ccc2-n2c(nnc2[C@H]2CC[C@@H](N3CCCC3=O)CC2)C1 (stereo partly drawn) [Example 218, 1-[cis-4-(8-chloro-5-methoxy-5,6-dihydro-H-[1,2,4]triazolo[4,3-a][1]benzazepin-1-yl)cyclohexyl]pyrrolidin-2-one]	97 nM	1250 nM
COC1Cc2cc(Cl)ccc2-n2c(nnc2[C@H]2CC[C@H](N3CCCC3=O)CC2)C1 (stereo partly drawn) [Example 219, 1-[trans-4-(8-chloro-5-methoxy-5,6-dihydro-4H-[1,2,4]triazolo[4,3-a][1]benzazepin-1-yl)cyclohexyl]pyrrolidin-2-one]	0.2 nM	22 nM
O=C(N[C@@H]1Cc2cc(Cl)ccc2-n2c(nnc2[C@H]2CC[C@H](Oc3ccccn3)CC2)C1)C1CC(F)(F)C1 [Example 220, N-{(5R)-8-chloro-1-[trans-4-(pyridin-2-yloxy)cyclohexyl]-5,6-dihydro-4H-[1,2,4]triazolo[4,3-a][1]benzazepin-5-yl}-3,3-difluorocyclobutanecarboxamide]	0.4 nM	2.6 nM
O=C(N[C@@H]1Cc2cc(Cl)ccc2-n2c(nnc2[C@H]2CC[C@H](Oc3ccccn3)CC2)C1)C1CCC(F)(F)CC1 [Example 221, N-{(5R)-8-chloro-1-[trans-4-(pyridin-2-yloxy)cyclohexyl]-5,6-dihydro-4H-[1,2,4]triazolo[4,3-a][1]benzazepin-5-yl}-4,4-difluorocyclohexanecarboxamide]	0.9 nM	9.8 nM
COC1Cc2cc(Cl)ccc2-n2c(nnc2[C@H]2CC[C@](OC)(C(F)(F)F)CC2)C1 (stereo partly drawn) [Example 222, 8-chloro-5-methoxy-1-[cis-4-methoxy-4-(trifluoromethyl)cyclohexyl]-5,6-dihydro-4H-[1,2,4]triazolo[4,3-a][1]benzazepine]	5.8 nM	40 nM
COC1Cc2cc(Cl)ccc2-n2c(nnc2[C@H]2CC[C@@](OC)(C(F)(F)F)CC2)C1 (stereo partly drawn) [Example 223, 8-chloro-5-methoxy-1-[trans-4-methoxy-4-(trifluoromethyl)cyclohexyl]-5,6-dihydro-4H-[1,2,4]triazolo[4,3-a][1]benzazepine]	1.6 nM	8.1 nM
FC(F)(F)CN[C@H]1Cc2cc(Cl)ccc2-n2c(nnc2[C@H]2CC[C@H](Oc3ccccn3)CC2)C1 [Example 224, (5S)-8-chloro-1-[trans-4-(pyridin-2-yloxy)cyclohexyl]-N-(2,2,2-trifluoroethyl)-5,6-dihydro-4H-[1,2,4]triazolo[4,3-a][1]benzazepin-5-amine]	0.7 nM	3.6 nM
CC1(C(=O)N[C@H]2Cc3cc(Cl)ccc3-n3c(nnc3[C@H]3CC[C@H](Oc4ccccn4)CC3)C2)COC1 [Example 225]	48 nM	854 nM
CC1(C(=O)N[C@@H]2Cc3cc(Cl)ccc3-n3c(nnc3[C@H]3CC[C@H](Oc4ccccn4)CC3)C2)COC1 [Example 226, N-{(5R)-8-chloro-1-[trans-4-(pyridin-2-yloxy)cyclohexyl]-5,6-dihydro-4H-[1,2,4]triazolo[4,3-a][1]benzazepin-5-yl}-3-methyloxetan-3-carboxamide]	0.5 nM	4.2 nM
COc1ccc(CN[C@H]2CC[C@H](c3nnc4n3-c3ccc(Cl)cc3CC3(C4)OCCO3)CC2)cc1 [Example 227, Trans-4-(8′-chloro-4′H,6′H-spiro[1,3-dioxolane-2,5′-[1,2,4]triazolo[4,3-a][1]benzazepin]-1′-yl)-N-(4-methoxybenzyl)cyclohexanamine]	1 nM	51 nM
CC(C)(C)OC(=O)NCCN[C@@H]1Cc2cc(Cl)ccc2-n2c(nnc2[C@H]2CC[C@H](Oc3ccccn3)CC2)C1 [Example 228, Tert-butyl [2-({(5R)-8-chloro-1-[trans-4-(pyridin-2-yloxy)cyclohexyl]-5,6-dihydro-4H-[1,2,4]triazolo[4,3-a][1]benzazepin-5-yl}amino)ethyl]carbamate]	0.8 nM	6.1 nM
CCO[C@]1(CC)CC[C@@H](c2nnc3n2-c2ccc(Cl)cc2CC2(C3)OCCO2)CC1 [Example 229, 8′-chloro-1′-(trans-4-ethoxy-4-ethylcyclohexyl)-4′H,6′H-spiro[1,3-dioxolane-2,5′-[1,2,4]triazolo[4,3-a][1]benzazepine]]	0.4 nM	2.1 nM
COc1ccc(CN(C)[C@H]2CC[C@H](c3nnc4n3-c3ccc(Cl)cc3CC3(C4)OCCO3)CC2)cc1 [Example 230, Trans-4-(8′-chloro-4′H,6′H-spiro[1,3-dioxolane-2,5′-[1,2,4]triazolo[4,3-a][1]benzazepin]-1′-yl)-N-(4-methoxybenzyl)-N-methylcyclohexanamine]	0.7 nM	12 nM
Clc1ccc2c(c1)CC1(Cc3nnc(C4CCN(Cc5cccnc5)C4)n3-2)OCCO1 (centres unmarked) [Example 231, 8′-chloro-1′-[1-(pyridin-3-ylmethyl)pyrrolidin-3-yl]-4′H,6′H-spiro[1,3-dioxolane-2,5′-[1,2,4]triazolo[4,3-a][1]benzazepine]]	1.1 nM	5.9 nM
COC1Cc2cc(Cl)ccc2-n2c(nnc2N2CCN(c3ccccn3)CC2)C1 (centres unmarked) [Example 232, 8-chloro-5-methoxy-1-[4-(pyridin-2-yl)piperazin-1-yl]-5,6-dihydro-4H-[1,2,4]triazolo[4,3-a][1]benzazepine]	1.3 nM	9.2 nM
CC[C@]1(OC)CC[C@H](c2nnc3n2-c2ccc(Cl)cc2CC(N(C)C)C3)CC1 (stereo partly drawn) [Example 233, 8-chloro-1-(trans-4-ethyl-4-methoxycyclohexyl)-N,N-dimethyl-5,6-dihydro-4H-[1,2,4]triazolo[4,3-a][1]benzazepin-5-amine]	6.9 nM	53 nM
CCO[C@]1(C)CC[C@@H](c2nnc3n2-c2ccc(Cl)cc2CC(N(C)C)C3)CC1 (stereo partly drawn) [Example 234, 8-chloro-1-(trans-4-ethoxy-4-methylcyclohexyl)-N,N-dimethyl-5,6-dihydro-4H-[1,2,4]triazolo[4,3-a][1]benzazepin-5-amine]	3.8 nM	57 nM
CO[C@]1(C(F)(F)F)CC[C@@H](c2nnc3n2-c2ccc(Cl)cc2CC2(C3)OCCO2)CC1 [Example 235, 8′-chloro-1′-[trans-4-methoxy-4-(trifluoromethyl)cyclohexyl]-4′H,6′H-spiro[1,3-dioxolane-2,5′-[1,2,4]triazolo[4,3-a][1]benzazepine]]	0.3 nM	22 nM
CO[C@]1(C(F)(F)F)CC[C@H](c2nnc3n2-c2ccc(Cl)cc2CC2(C3)OCCO2)CC1 [Example 236, 8′-chloro-1′-[cis-4-methoxy-4-(trifluoromethyl)cyclohexyl]-4′H,6′H-spiro[1,3-dioxolane-2,5′-[1,2,4]triazolo[4,3-a][1]benzazepine]]	0.9 nM	4.2 nM
CCO[C@]1(C)CC[C@@H](c2nnc3n2-c2ccc(Cl)cc2CC2(C3)OCCO2)CC1 [Example 237, 8′-chloro-1′-(trans-4-ethoxy-4-methylcyclohexyl)-4′H,6′H-spiro[1,3-dioxolane-2,5-[1,2,4]triazolo[4,3-a][1]benzazepine]]	0.2 nM	1.5 nM
CCC[C@]1(OCC)CC[C@H](c2nnc3n2-c2ccc(Cl)cc2CC2(C3)OCCO2)CC1 [Example 238, 8′-chloro-1′-(trans-4-ethoxy-4-propylcyclohexyl)-4′H,6′-spiro[1,3-dioxolane-2,5′-[1,2,4]triazolo[4,3-a][1]benzazepine]]	0.7 nM	8.2 nM
Clc1ccc2c(c1)CC1(Cc3nnc(C4CCN(Cc5ccccn5)C4)n3-2)OCCO1 (centres unmarked) [Example 239, 8′-chloro-1′-[1-(pyridin-2-ylmethyl)pyrrolidin-3-yl]-4′H,6′H-spiro[1,3-dioxolane-2,5′-[1,2,4]triazolo[4,3-a][1]benzazepine]]	1.2 nM	5.6 nM
CC[C@]1(OC)CC[C@@H](c2nnc3n2-c2ccc(Cl)cc2CC2(C3)OCCO2)CC1 [Example 240, 8′-chloro-1′-(cis-4-ethyl-4-methoxycyclohexyl)-4′H,6′H-spiro[1,3-dioxolane-2,5′-[1,2,4]triazolo[4,3-a][1]benzazepine]]	0.5 nM	3.1 nM
CC[C@]1(OC)CC[C@H](c2nnc3n2-c2ccc(Cl)cc2CC2(C3)OCCO2)CC1 [Example 241, 8′-chloro-1′-(trans-4-ethyl-4-methoxycyclohexyl)-4′H,6′H-spiro[1,3-dioxolane-2,5′-[1,2,4]triazolo[4,3-a][1]benzazepine]]	0.4 nM	2.6 nM
CCC[C@]1(OC)CC[C@H](c2nnc3n2-c2ccc(Cl)cc2CC2(C3)OCCO2)CC1 [Example 242, 8′-chloro-1′-(trans-4-methoxy-4-propylcyclohexyl)-4′H,6′H-spiro[1,3-dioxolane-2,5′-[1,2,4]triazolo 4,3a][1]benzoepin]	0.5 nM	1.8 nM
